We go through 29 compounds from US8304422B2, “Compositions and methods for inhibition of the JAK pathway” (Rigel Pharmaceuticals, Inc., priority 2007, dated 2012).

The subject of this experiment is Ramos B-Cell Line Stimulated with IL-4. Put plainly: Assay for Ramos B-Cell Line Stimulated with IL-4 (CD23 upregulation, FACS; Example 2). The class given is cell-based. The conditions noted are these: human Ramos B cells, IL-4 50 units/mL for 20-24 hours, anti-CD23-PE. The text has this:
One means of assaying for such inhibition is detection of the effect of the 2,4-pyrimidinediamine compounds on the upregulation of downstream gene products. In the Ramos/IL4 assay, B-cells are stimulated with the cytokine Interleukin-4 (IL-4) leading to the activation of the JAK/Stat pathway through phosphorylation of the JAK family kinases, JAK1 and JAK3, which in turn phosphorylate and activate the transcription factor Stat-6. […] To study the effect of inhibitors (e.g., the 2,4-substituted pyrimindinediamine compounds described herein) on the JAK1 and JAK3 kinases, human Ramos B cells are stimulated with human IL-4. 20 to 24 hours post stimulation, cells are stained for upregulation of CD23 and analyzed using flow cytometry (FACS). […] An exemplary assay of this type is described in greater detail in Example 2.
B-cells stimulated with cytokine Interleukin-4 (IL-4) activate the JAK/Stat pathway through phosphorylation of the JAK family kinases, JAK-1 and JAK-3, which in turn phosphorylate and activate the transcription factor Stat-6. […] To study the effect of inhibitors on the JAK family kinases, human Ramos B cells are stimulated with human IL-4.
The Ramos B-cell line was acquired from ATCC (ATCC Catalog No. CRL-1596). The cells were cultured in RPMI 1640 (Cellgro, MediaTech, Inc., Herndon, Va., Cat No. 10-040-CM) with 10% fetal bovine serum (FBS), heat inactivated (JRH Biosciences, Inc, Lenexa, Kans., Cat No. 12106-500M) according to ATCC propagation protocol. Cells were maintained at a density of 3.5×10^5. The day before the experiment, Ramos B-cells were diluted to 3.5×10^5 cells/mL to ensure that they were in a logarithmic growth phase.
Cells were spun down and suspended in RPMI with 5% serum. 5×10^4 cells were used per point in a 96-well tissue culture plate. Cells were pre-incubated with compound or DMSO (Sigma-Aldrich, St. Louis, Mo., Cat No. D2650) vehicle control for 1 hour in a 37° C. incubator.
Cells were then stimulated with IL-4 (Peprotech Inc., Rocky Hill, N.J., Cat No. 200-04) for a final concentration of 50 units/mL for 20-24 hours. Cells were then spun down and stained with anti-CD23-PE (BD Pharmingen, San Diego, Calif., Cat No. 555711) and analyzed by FACS. Detection was performed using a BD LSR I System Flow Cytometer, purchased from Becton Dickinson Biosciences of San Jose, Calif.
For orientation: IC50 means the concentration that gives 50% inhibition. A lower IC50 goes with greater potency. `Cc1cnc(Nc2ccc3[nH]c(-c4cccnc4)nc3c2)nc1Nc1ccc(CNS(=O)(=O)C2CC2)cc1` [IV-3, N4-(4-cyclopropylsulfonylaminomethyl)phenyl-5-methyl-N2-[2-(pyridin-3-yl)benzoimidazol-5-yl]-2,4-pyrimidinediamine] had an IC50 of 0.178 µM.

In the case of `Cc1cnc(Nc2cccc(C(N)=O)c2)nc1Nc1ccc(CNS(=O)(=O)C2CC2)c(Cl)c1` [II-18, N2-(3-aminocarbonyl)phenyl-N4-(3-chloro-4-cyclopropylsulfonylaminomethyl)phenyl-5-methyl-2,4-pyrimidinediamine], the IC50 came out at 0.279 µM.

As for `Cc1cnc(Nc2cccc(C(N)=O)c2)nc1Nc1ccc(CN(C)S(=O)(=O)C2CC2)cc1` [II-20, N2-(3-aminocarbonyl)phenyl-N4-[4-(N-cyclopropylsulfonyl-N-methyl)aminomethyl]phenyl-5-methyl-2,4-pyrimidinediamine], the IC50 is 0.505 µM.

The compound `Cc1cnc(Nc2ccc(C#N)cc2)nc1Nc1ccc(CN(C)S(=O)(=O)C2CC2)cc1` [II-27, N2-(4-cyano)phenyl-N4-[4-(N-cyclopropylsulfonyl-N-methyl)aminomethyl]phenyl-5-methyl-2,4-pyrimidinediamine] showed an IC50 of 89.2 µM.

Compound `Cc1nc2ccc(Nc3ncc(F)c(Nc4ccc5c(c4)CCN5S(C)(=O)=O)n3)cc2[nH]1` [VIII-6, 5-Fluoro-N4-[(1-methylsulfonyl)indolin-5-yl]-N2-(2-methylbenzimidazol-5-yl)-2,4-pyrimidinediamine] gave a half-maximal inhibitory concentration (IC50) of 0.349 µM.

`C#CCNS(=O)(=O)c1cccc(Nc2nc(Nc3cc(C)c(OC)c(C)c3)ncc2F)c1` [I-4, N2-(3,5-Dimethyl-4-methoxyphenyl)-5-fluoro-N4-[3-(prop-2-ynylaminosulfonyl)phenyl]-2,4-pyrimidinediamine]: the IC50 worked out at 0.0955 µM.

In the case of `CNC(=O)COc1cccc(Nc2ncc(N)c(Nc3cccc(S(N)(=O)=O)c3)n2)c1` [I-7, 5-Amino-N4-(3-aminosulfonylphenyl)-N2-[3-(N-methylamino)carbonylmethyleneoxyphenyl]-2,4-pyrimidinediamine], the IC50 is 5.82 µM.

The compound `C#CCNS(=O)(=O)c1cccc(Nc2nc(Nc3cc(OC)c(OC)c(OC)c3)ncc2F)c1` [I-1, 5-Fluoro-N4-[3-(prop-2-ynylaminosulfonyl)phenyl]-N2-(3,4,5-trimethoxyphenyl)-2,4-pyrimidinediamine] returned an IC50 of 0.14 µM.

For the compound `Cc1cnc(Nc2ccc3[nH]cnc3c2)nc1Nc1ccc(CNS(=O)(=O)C2CC2)cc1` [IV-1, N2-(benzoimidazol-5-yl)-N4-(4-cyclopropylsulfonylaminomethyl)phenyl-5-methyl-2,4-pyrimidinediamine], 0.0747 µM corresponded to half-maximal inhibition (IC50).

Turning to `Cc1cnc(Nc2ccc3[nH]c(C(F)(F)F)nc3c2)nc1Nc1ccc(CNS(=O)(=O)C2CC2)cc1` [IV-2, N4-(4-cyclopropylsulfonylaminomethyl)phenyl-5-methyl-N2-(2-trifluoromethylbenzoimidazol-5-yl)-2,4-pyrimidinediamine], the IC50 was determined as 0.044 µM.

The compound `COc1ccc(N(C)c2ncc(N)c(Nc3ccc(S(N)(=O)=O)cc3)n2)cc1` [I-9, 5-Amino-N4-(4-aminosulfonylphenyl)-N2-(4-methoxyphenyl)-N2-methyl-2,4-pyrimidinediamine] registered an IC50 of 99.6 µM.

For the compound `C#CCOc1ccc(Nc2ncc(C(F)(F)F)c(Nc3ccc(C)c(S(N)(=O)=O)c3)n2)cc1` [I-3, N4-(3-Aminosulfonyl-4-methylphenyl)-N2-[4-(prop-2-ynyloxy)phenyl]-5-trifluoromethyl-2,4-pyrimidinediamine], 0.153 µM corresponded to half-maximal inhibition (IC50).

Regarding `COc1cc(Nc2ncc(C)c(Nc3ccc4c(c3)C(NS(C)(=O)=O)CC4)n2)cc(OC)c1OC` (racemic) [V-1, (+/−)-5-Methyl-N4-[1-(methylsulfonylamino)indan-6-yl]-N2-(3,4,5-trimethoxyphenyl)-2,4-pyrimidinediamine], the IC50 was 0.401 µM.

As for `Cc1cnc(Nc2ccc3[nH]c(-c4cccs4)nc3c2)nc1Nc1ccc(CNS(=O)(=O)C2CC2)cc1` [IV-5, N4-(4-cyclopropylsulfonylaminomethyl)phenyl-5-methyl-N2-[2-(thien-2-yl)benzoimidazol-5-yl]-2,4-pyrimidinediamine], half-maximal inhibition (IC50) required 0.0873 µM.

`Cc1cnc(Nc2ccc3c(c2)ncn3CCO)nc1Nc1ccc(CNS(=O)(=O)C2CC2)cc1` [IV-8, N4-(4-cyclopropylsulfonylaminomethyl)phenyl-N2-[1-(2-hydroxyethyl)benzoimidazol-5-yl]-5-methyl-2,4-pyrimidinediamine] came in with an IC50 of 0.257 µM.

With `C#CCOc1ccc(Nc2ncc(C)c(Nc3ccc(C)c(S(N)(=O)=O)c3)n2)cc1` [I-2, N4-(3-Aminosulfonyl-4-methylphenyl)-5-methyl-N2-[4-(prop-2-ynyloxy)phenyl]-2,4-pyrimidinediamine], inhibition was half-maximal at 0.181 µM (IC50).

`Nc1cnc(Nc2ccc3cn[nH]c3c2)nc1Nc1cccc(S(N)(=O)=O)c1` [VIII-8, 5-Amino-N4-(3-aminosulfonylphenyl)-N2-(indazoline-6-yl)-2,4-pyrimidinediamine] had an IC50 of 5.11 µM.

As to `Cc1cnc(Nc2ccc3[nH]c(CN4CCOCC4)nc3c2)nc1Nc1ccc(CNS(=O)(=O)C2CC2)cc1` [IV-6, N4-(4-cyclopropylsulfonylaminomethyl)phenyl-5-methyl-N2-[2-(morpholin-4-yl)methylbenzoimidazol-5-yl]-2,4-pyrimidinediamine], half-maximal inhibition (IC50) required 0.207 µM.

Compound `C#CCNS(=O)(=O)c1ccc(Nc2nc(Nc3cc(C)c(OC)c(C)c3)ncc2F)cc1` [I-5, N2-(3,5-Dimethyl-4-methoxyphenyl)-5-fluoro-N4-[4-(prop-2-ynylaminosulfonyl)phenyl]-2,4-pyrimidinediamine] had an IC50 of 0.0316 µM.

`COc1cccc(N(C)c2ncc(N)c(Nc3ccc(S(N)(=O)=O)cc3)n2)c1` [I-11, 5-Amino-N4-(4-aminosulfonylphenyl)-N2-(3-methoxyphenyl)-N2-methyl-2,4-pyrimidinediamine] displayed an IC50 of 15.9 µM.

`Cc1cnc(Nc2ccc3c(c2)nc(C)n3C)nc1Nc1ccc2c(c1)C(NS(C)(=O)=O)CC2` (racemic) [VIII-3, (+/−)-N2-(1,2-Dimethylbenzimidazol-5-yl)-N4-[1-(methylsulfonylamino)indan-6-yl]-5-methyl-2,4-pyrimidinediamine] registered a half-inhibitory concentration (IC50) of 0.717 µM.

`O=S(=O)(NC1CC1)c1ccc(Nc2nc(Nc3ccc(OCc4cccnc4)cc3)ncc2C(F)(F)F)cc1` [I-13, N4-[4-N—(Cyclopropyl)aminosulfonylphenyl]-N2-[4-(3-pyridinyl)methyleneoxyphenyl]-5-trifluoromethyl-2,4-pyrimidinediamine]: the 50% inhibitory concentration (IC50) was found to be 0.549 µM.

`COc1cccc(N(C)c2ncc(N)c(Nc3cccc(S(N)(=O)=O)c3)n2)c1` [I-10, 5-Amino-N4-(3-aminosulfonylphenyl)-N2-(3-methoxyphenyl)-N2-methyl-2,4-pyrimidinediamine]: the IC50 was 64.2 µM.

Regarding `CNC(=O)COc1cccc(Nc2ncc(N)c(Nc3ccc(S(N)(=O)=O)cc3)n2)c1` [I-6, 5-Amino-N4-(4-aminosulfonylphenyl)-N2-[3-(N-methylamino)carbonylmethyleneoxyphenyl]-2,4-pyrimidinediamine], the IC50 turned out to be 8.8 µM.

With `Cc1cnc(Nc2ccc3[nH]c(C(C)(C)C)nc3c2)nc1Nc1ccc(CNS(=O)(=O)C2CC2)cc1` [IV-4, N2-(2-tert-butylbenzoimidazol-5-yl)-N4-(4-cyclopropylsulfonylaminomethyl)phenyl-5-methyl-2,4-pyrimidinediamine], the IC50 was 0.127 µM.

Regarding `Cc1cc(Nc2ncc(F)c(Nc3ccc4c(c3)CCN4S(C)(=O)=O)n2)ccc1N1CCN(C)CC1` [VIII-5], inhibition was half-maximal at 0.0709 µM (IC50).

The compound `O=S(=O)(NCc1ccc(Nc2nc(Nc3ccc(F)c(F)c3)ncc2F)cc1)C1CC1` [II-2, N4-(4-cyclopropylsulfonylaminomethyl)phenyl-N2-(3,4-difluoro)phenyl-5-fluoro-2,4-pyrimidinediamine] came in with an IC50 of 0.614 µM.

In the case of `Cc1cnc(Nc2cccc(C(N)=O)c2)nc1Nc1cccc(CNS(=O)(=O)C2CC2)c1` [II-24, N2-(3-aminocarbonyl)phenyl-N4-(3-cyclopropylsulfonylaminomethyl)phenyl-5-methyl-2,4-pyrimidinediamine], the IC50 was 0.28 µM.

`CS(=O)(=O)N1CCc2cc(Nc3nc(Nc4ccc5nc(C(F)(F)F)[nH]c5c4)ncc3F)ccc21` [VIII-4, 5-Fluoro-N4-[(1-methylsulfonyl)indolin-5-yl]-N2-(2-trifluoromethylbenzimidazol-5-yl)-2,4-pyrimidinediamine] gave a 50% inhibitory concentration (IC50) of 0.242 µM.
